For this test, the system named is Dengue-2 (Strain New Guinea C). In words: Viral yield assay against Dengue-2 in Vero cells. It is filed as cell-based, Dengue virus. As to conditions: Dengue virus, read-out: Activity (EC50 class) against Dengue-2 Virus in Vero cells. The protocol: Compounds that were active in the primary screen were tested for activity in viral yield assays. […] Vero cells in 12-well plates were infected with dengue-2 virus at a multiplicity of infection (MOI) of 0.1, treated with compound (or DMSO as a control), incubated at 37° C., harvested 48 hours post infection and titered on Vero cells as described above. The EC50 was calculated through ExcelFit. Activities against other serotypes of dengue virus were determined in a similar way.

The mark [1] stands for this setting: Vero cells, MOI 0.1, harvested 48 hours post infection.

Drawing on patent US20170121344A1 (Siga Technologies, Inc., priority 2009, published 2017), this text covers EC50 for 35 compounds.

pEC50: −log10 of the molar value. Read-outs that look alike come from different tables or passages of the source.

For the compound `COc1ccccc1NC(=O)c1sc2nc3c(cc2c1N)CN(C)CC3` [Compound 58, 3-Amino-6-methyl-5,6,7,8-tetrahydro-thieno[2,3-b][1,6]naphthyridine-2-carboxylic acid (2-methoxy-phenyl)-amide], the pEC50 under setting [1] is above 5.30.
Same read-out and setting: as for `CC(C)N1CCc2nc3sc(C(=O)Nc4ccc(OC(F)(F)F)cc4)c(N)c3cc2C1` [Compound 59, 3-Amino-6-isopropyl-5,6,7,8-tetrahydro-thieno[2,3-b][1,6]naphthyridine-2-carboxylic acid (4-trifluoromethoxy-phenyl)-amide], the figure is above 5.30; as for `CC(C)N1CCc2nc3sc(C(=O)Nc4ccc(C(F)(F)F)cc4)c(N)c3cc2C1` [Compound 60, 3-Amino-6-isopropyl-5,6,7,8-tetrahydro-thieno[2,3-b][1,6]naphthyridine-2-carboxylic acid (4-trifluoromethyl-phenyl)-amide], above 5.30.
`Cc1ccc(F)cc1NC(=O)c1sc2nc3c(cc2c1N)CN(C)CC3` [Compound 61, 3-Amino-6-methyl-5,6,7,8-tetrahydro-thieno[2,3-b][1,6]naphthyridine-2-carboxylic acid (5-fluoro-2-methyl-phenyl)-amide]: the pEC50 under setting [1] was above 5.30.
Regarding `CN1CCc2nc3sc(C(=O)Nc4nc5ccccc5s4)c(N)c3cc2C1` [Compound 62, 3-Amino-6-methyl-5,6,7,8-tetrahydro-thieno[2,3-b][1,6]naphthyridine-2-carboxylic acid benzothiazol-2-ylamide], the pEC50 under setting [1] is above 5.30.
As for `CN1CCc2nc3sc(C(=O)Nc4cc(Br)ccc4Br)c(N)c3cc2C1` [Compound 63, 3-Amino-6-methyl-5,6,7,8-tetrahydro-thieno[2,3-b][1,6]naphthyridine-2-carboxylic acid (2,5-dibromo-phenyl)-amide], under setting [1], the pEC50 is above 5.30.
On the same count and under the same terms, as for `CN1CCc2nc3sc(C(=O)Nc4ccc(Cl)cc4)c(N)c3c(-c3ccccc3)c2C1` [Compound 64, 3-Amino-6-methyl-4-phenyl-5,6,7,8-tetrahydro-thieno[2,3-b][1,6]naphthyridine-2-carboxylic acid (4-chloro-phenyl)-amide], the figure is above 5.30; as for `CCc1nnc(NC(=O)c2sc3nc(C)cc(C(F)(F)F)c3c2N)s1` [Compound 65, 3-Amino-6-methyl-4-trifluoromethyl-thieno[2,3-b]pyridine-2-carboxylic acid (5-ethyl-[1,3,4]thiadiazol-2-yl)-amide], 4.60 to 5.30.
On to `Nc1c(C(=O)Nc2ccccc2)sc2nc(-c3ccccc3)cc(-c3ccccc3)c12` [Compound 66, 3-Amino-4,6-diphenyl-thieno[2,3-b]pyridine-2-carboxylic acid phenylamide], for which the pEC50 under setting [1] was 4.60 to 5.30.
Regarding `COc1ccccc1-c1cc(-c2ccccc2)c2c(N)c(C(=O)NC3CC3)sc2n1` [Compound 67, 3-Amino-6-(2-methoxy-phenyl)-4-phenyl-thieno[2,3-b]pyridine-2-carboxylic acid cyclopropylamide], the pEC50 under setting [1] was 4.60 to 5.30.
For `COCc1cc(C)c2c(N)c(C(N)=O)sc2n1` [Compound 68, 3-Amino-6-methoxymethyl-4-methyl-thieno[2,3-b]pyridine-2-carboxylic acid amide], the pEC50 under setting [1] was 4.60 to 5.30.
Consider `N#Cc1cc2c(N)c(C(=O)N(c3ccccc3)c3ccccc3)sc2nc1N` [Compound 69, 3,6-Diamino-5-cyano-thieno[2,3-b]pyridine-2-carboxylic acid diphenylamide], for which the pEC50 under setting [1] is 4.60 to 5.30.
In the case of `CCCCOc1ccc(NC(=O)c2sc3nc(N)c(C#N)cc3c2N)cc1` [Compound 70, 3,6-Diamino-5-cyano-thieno[2,3-b]pyridine-2-carboxylic acid (4-butoxy-phenyl)-amide], for the setting “Vero, 48 h”, the negative-log EC50 (pEC50) is 4.60 to 5.30.
With `CCCc1ccc2c(N)c(C(N)=O)sc2n1` [Compound 71, 3-Amino-6-propyl-thieno[2,3-b]pyridine-2-carboxylic acid amide], the pEC50 under setting [1] is 4.60 to 5.30.
For the compound `Cc1nc2sc(C(N)=O)c(N)c2c(C)c1CC(=O)c1ccccc1` [Compound 72, 3-Amino-4,6-dimethyl-5-(2-oxo-2-phenyl-ethyl)-thieno[2,3-b]pyridine-2-carboxylic acid amide], where the note is “Vero, 48 h”, the pEC50 is 4.60 to 5.30.
`CCCc1ccc2c(N)c(C(=O)Nc3nc(C(F)(F)F)ccc3Cl)sc2n1` [Compound 73, 3-Amino-6-propyl-thieno[2,3-b]pyridine-2-carboxylic acid (3-chloro-6-trifluoromethyl-pyridin-2-yl)-amide]: the pEC50 under setting [1] was 4.60 to 5.30.
As for `COCc1cc(C)nc2sc(C(=O)Nc3cccc4ccccc34)c(N)c12` [Compound 74, 3-Amino-4-methoxymethyl-6-methyl-thieno[2,3-b]pyridine-2-carboxylic acid naphthalen-1-ylamide], the pEC50 under setting [1] is 4.60 to 5.30.
Take `CCOC(=O)c1cc2c(N)c(C(=O)Nc3cccc(C(F)(F)F)c3)sc2nc1N` [Compound 75, 3,6-Diamino-2-(3-trifluoromethyl-phenylcarbamoyl)-thieno[2,3-b]pyridine-5-carboxylic acid ethyl ester]: under setting [1], the pEC50 is 4.60 to 5.30.
Same read-out and setting: the figure for `COCc1cc(C)nc2sc3c(=O)[nH]nnc3c12` [Compound 76, 9-Methoxymethyl-7-methyl-3H-pyrido[3′,2′:4,5]thieno[3,2-d][1,2,3]triazin-4-one] is 4.60 to 5.30; for `CN(C)c1ccnc2sc(C(=O)NCc3ccccc3)c(N)c12` [Compound 77, 3-Amino-4-dimethylamino-thieno[2,3-b]pyridine-2-carboxylic acid benzylamide] it is 4.60 to 5.30.
For the compound `Nc1c(C(=O)Nc2ccccc2F)sc2nc3c(cc12)CCCC3` [Compound 78, 3-Amino-5,6,7,8-tetrahydro-thieno[2,3-b]quinoline-2-carboxylic acid (2-fluoro-phenyl)-amide], for the setting “Vero, 48 h”, the pEC50 was 4.60 to 5.30.
Consider `Nc1c(C(=O)Nc2ccccc2F)sc2nc3c(cc12)CCCCC3` [Compound 79, 3-Amino-6,7,8,9-tetrahydro-5H-1-thia-10-aza-cyclohepta[f]indene-2-carboxylic acid (2-fluoro-phenyl)-amide], for which the pEC50 (Vero, 48 h) is 4.60 to 5.30.
The same measure, in the same setting: as for `Nc1c(C(=O)Nc2ccc(S(N)(=O)=O)cc2)sc2nc3c(cc12)CCCCC3` [Compound 80, 3-Amino-6,7,8,9-tetrahydro-5H-1-thia-10-aza-cyclohepta[f]indene-2-carboxylic acid (4-sulfamoyl-phenyl)-amide], the figure is 4.60 to 5.30; as for `COCc1cc(C)nc2sc(C(=O)Nc3ccc(Cl)cc3)c(N)c12` [Compound 81, 3-Amino-4-methoxymethyl-6-methyl-thieno[2,3-b]pyridine-2-carboxylic acid (4-chloro-phenyl)-amide], 4.60 to 5.30.
`NC(=O)c1sc2nc3c(cc2c1N)CCCCC3` [Compound 82, 3-Amino-6,7,8,9-tetrahydro-5H-1-thia-10-aza-cyclohepta[f]indene-2-carboxylic acid amide]: the pEC50 under setting [1] is 4.60 to 5.30.
On to `Cc1cc(C)c2c(N)c(C(=O)Nc3ccc4ccccc4c3)sc2n1` [Compound 83, 3-Amino-4,6-dimethyl-thieno[2,3-b]pyridine-2-carboxylic acid naphthalen-2-ylamide], for which the pEC50 under setting [1] is 4.60 to 5.30.
Same read-out and setting: the figure for `COc1ccc(-c2c(C#N)c(N)nc3sc(C(=O)Nc4ccc(F)cc4)c(N)c23)cc1OC` [Compound 84, 3,6-Diamino-5-cyano-4-(3,4-dimethoxy-phenyl)-thieno[2,3-b]pyridine-2-carboxylic acid (4-fluoro-phenyl)-amide] is 4.60 to 5.30; for `CCN(CC)C(=O)c1sc2nc(-c3cccs3)cc(C(F)(F)F)c2c1N` [Compound 85, 3-Amino-6-thiophen-2-yl-4-trifluoromethyl-thieno[2,3-b]pyridine-2-carboxylic acid diethylamide] it is 4.60 to 5.30; for `Nc1c(C(=O)Nc2nccs2)sc2nc3c(c(-c4ccco4)c12)CCCC3` [Compound 86, 3-Amino-4-furan-2-yl-5,6,7,8-tetrahydro-thieno[2,3-b]quinoline-2-carboxylic acid thiazol-2-ylamide] it is 4.60 to 5.30.
As to `Nc1c(C(=O)Nc2ccc3ccccc3c2)sc2nc3c(cc12)CCCC3` [Compound 87, 3-Amino-5,6,7,8-tetrahydro-thieno[2,3-b]quinoline-2-carboxylic acid naphthalen-2-ylamide], under setting [1], the pEC50 is 4.60 to 5.30.
As for `Nc1c(C(=O)Nc2nnc(-c3ccccc3)s2)sc2nc3c(cc12)CCC3` [Compound 88, 3-Amino-6,7-dihydro-5H-cyclopenta[b]thieno[3,2-e]pyridine-2-carboxylic acid (5-phenyl-[1,3,4]thiadiazol-2-yl)-amide], the pEC50 under setting [1] was 4.60 to 5.30.
For the compound `Nc1c(C(=O)N2CCOCC2)sc2nc(-c3ccccc3)cc(C(F)(F)F)c12` [Compound 89, (3-Amino-6-phenyl-4-trifluoromethyl-thieno[2,3-b]pyridin-2-yl)-morpholin-4-yl-methanone], the pEC50 under setting [1] is 4.60 to 5.30.
`CCc1nnc(NC(=O)c2sc3nc(-c4cccs4)cc(C(F)(F)F)c3c2N)s1` [Compound 90, 3-Amino-6-thiophen-2-yl-4-trifluoromethyl-thieno[2,3-b]pyridine-2-carboxylic acid (5-ethyl-[1,3,4]thiadiazol-2-yl)-amide]: under “Vero, 48 h”, the pEC50 is 4.60 to 5.30.
Turning to `Nc1c(C(=O)Nc2ccc3ccccc3c2)sc2nc3c(cc12)CCC3` [Compound 91, 3-Amino-6,7-dihydro-5H-cyclopenta[b]thieno[3,2-e]pyridine-2-carboxylic acid naphthalen-2-ylamide], for the setting “Vero, 48 h”, the pEC50 is 4.60 to 5.30.
Turning to `CCc1nnc(NC(=O)c2sc3nc4c(cc3c2N)CCCC4)s1` [Compound 92, 3-Amino-5,6,7,8-tetrahydro-thieno[2,3-b]quinoline-2-carboxylic acid (5-ethyl-[1,3,4]thiadiazol-2-yl)-amide], the pEC50 under setting [1] is 4.60 to 5.30.
